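Tested at 5 concentrations; 48 h exposure; 96-well plates; endpoints linearly interpolated, else capped at highest concentration. GI50 is the concentration that inhibits growth by half.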 Active and inactive are the calls of the source. Rule as the data show it: active = GI50 up to about 1.1 µM and inactive = higher.
Experiments:
Assay in all cases: inhibition of tumour cell growth, NCI panel, 48 h
SF-295 = system: SF-295
HT-29 = system: HT-29
MOLT-4 = system: MOLT-4
SF-268 = system: SF-268
HOP-92 = system: HOP-92
NCI-H226 = system: NCI-H226
M14 = system: M14
OVCAR-8 = system: OVCAR-8
SF-539 = system: SF-539
786-0 = system: 786-0
NCI-H522 = system: NCI-H522
NCI-H23 = system: NCI-H23
SW-620 = system: SW-620
A549 = system: A549
UO-31 = system: UO-31
ACHN = system: ACHN
SNB-75 = system: SNB-75
A498 = system: A498
MCF7 = system: MCF7
MDA-MB-231 = system: MDA-MB-231

Measured: GI50

Cc1ccc(-c2c(N)[n+]([O-])c3ccccc3[n+]2[O-])cc1
inactive: SF-295 20 µM | HT-29 12.3 µM | MOLT-4 45.2 µM | SF-268 16.9 µM | HOP-92 > 100 µM | NCI-H226 17.9 µM | M14 12 µM | OVCAR-8 23.4 µM | SF-539 11 µM | 786-0 13.5 µM | NCI-H522 1.55 µM | NCI-H23 5 µM | SW-620 5.25 µM | A549 23.3 µM | UO-31 16.1 µM | ACHN 15.4 µM | SNB-75 12.2 µM | A498 > 10 µM

CC1C2=C(CCCC2=O)N(c2ccc(Cl)cc2)C2=C1C(=O)CCC2
inactive: HT-29 45.6 µM | MOLT-4 20.3 µM | SF-268 > 100 µM | HOP-92 42.3 µM | NCI-H226 > 100 µM | M14 > 100 µM | OVCAR-8 > 100 µM | SF-539 > 100 µM | 786-0 > 100 µM | NCI-H23 > 100 µM | SW-620 > 100 µM | A549 88.5 µM | UO-31 46.2 µM | MCF7 57.7 µM | ACHN 91.2 µM | SNB-75 16.3 µM | A498 > 100 µM

COc1ccc2c(CN3CCCCC3CO)cc3cc(OC)c(OC)cc3c2c1 (configuration not stated)
inactive: SF-295 3.02 µM | HT-29 2.43 µM | MOLT-4 2.82 µM | SF-268 6.28 µM | HOP-92 2.1 µM | NCI-H226 4.32 µM | M14 4.74 µM | OVCAR-8 4.42 µM | SF-539 4.02 µM | 786-0 4.8 µM | NCI-H522 2.52 µM | NCI-H23 3.81 µM | SW-620 3.88 µM | A549 3.97 µM | UO-31 2.87 µM | ACHN 3.5 µM | SNB-75 8.53 µM | A498 3.59 µM

CC1=C(c2cc(C(=O)Nc3nccs3)nc(NC#N)n2)Sc2ccccc2N1
inactive: SF-295 > 100 µM | HT-29 > 100 µM | MOLT-4 > 100 µM | SF-268 > 100 µM | HOP-92 > 100 µM | NCI-H226 > 100 µM | M14 > 100 µM | OVCAR-8 > 100 µM | SF-539 > 100 µM | 786-0 > 100 µM | NCI-H522 > 100 µM | NCI-H23 > 100 µM | SW-620 > 100 µM | A549 > 100 µM | UO-31 > 100 µM | ACHN > 100 µM | SNB-75 87.3 µM | A498 > 100 µM

CC1(c2ccccc2)CC(c2ccccc2)=NO1 (configuration not stated)
inactive: SF-295 > 100 µM | HT-29 > 100 µM | MOLT-4 > 100 µM | SF-268 > 100 µM | HOP-92 > 100 µM | NCI-H226 > 100 µM | M14 > 100 µM | OVCAR-8 > 100 µM | SF-539 > 100 µM | 786-0 > 100 µM | NCI-H522 > 100 µM | NCI-H23 > 100 µM | SW-620 > 100 µM | A549 > 100 µM | UO-31 > 100 µM | ACHN > 100 µM | SNB-75 > 100 µM | A498 > 100 µM

Cc1ccc(/C=C/c2n[nH]c(N/N=C/c3ccc4c(c3)OCO4)nc2=O)cc1
inactive: SF-295 33.7 µM | HT-29 24 µM | MOLT-4 39.9 µM | SF-268 17.2 µM | NCI-H226 26.9 µM | M14 36.6 µM | OVCAR-8 15.5 µM | SF-539 21 µM | 786-0 14.4 µM | NCI-H522 28.8 µM | NCI-H23 15.4 µM | SW-620 19.5 µM | A549 38.5 µM | UO-31 88.7 µM | MCF7 23.3 µM | ACHN 25.2 µM | SNB-75 15 µM | MDA-MB-231 15.5 µM

C/C(CC(=O)Nc1ccc(NC(=O)C/C(C)=N\NC(N)=O)cc1)=N/NC(N)=O
inactive: SF-295 > 100 µM | HT-29 96.8 µM | MOLT-4 47.2 µM | SF-268 > 60 µM | HOP-92 71.1 µM | NCI-H226 > 100 µM | M14 65.3 µM | OVCAR-8 > 100 µM | SF-539 > 100 µM | 786-0 > 68.9 µM | NCI-H522 > 51.5 µM | NCI-H23 98.4 µM | SW-620 > 100 µM | A549 > 100 µM | UO-31 > 85.1 µM | ACHN 99.8 µM | SNB-75 > 93.5 µM | A498 > 100 µM

O=[N+]([O-])C1C2C=CC(C2)[C@H]1c1ccccc1Cl (some centres not stated)
inactive: SF-295 > 100 µM | HT-29 99.8 µM | MOLT-4 57 µM | SF-268 > 100 µM | HOP-92 24 µM | NCI-H226 15.8 µM | M14 > 100 µM | OVCAR-8 > 100 µM | SF-539 > 100 µM | 786-0 > 100 µM | NCI-H522 23.8 µM | NCI-H23 63.4 µM | SW-620 > 100 µM | A549 > 84.5 µM | UO-31 > 54 µM | ACHN > 83.6 µM | SNB-75 20.5 µM | A498 > 89.9 µM

CCCCCCCC(=O)N1C2CC3CCC2(CS1(=O)=O)C3(C)C (configuration not stated)
inactive: SF-295 22.2 µM | HT-29 > 10 µM | MOLT-4 17.3 µM | SF-268 35.4 µM | HOP-92 20.6 µM | M14 17.5 µM | OVCAR-8 34.1 µM | SF-539 16.9 µM | 786-0 15.7 µM | NCI-H522 19.4 µM | NCI-H23 33.3 µM | SW-620 23.3 µM | A549 27 µM | UO-31 22.6 µM | MCF7 18.7 µM | ACHN 42.1 µM | SNB-75 24.7 µM | A498 76.9 µM

C/C(=N\NC(=O)c1ccccc1O)c1c(O)cc(C)oc1=O
inactive: SF-295 51.4 µM | HT-29 > 100 µM | MOLT-4 67.5 µM | SF-268 49.4 µM | HOP-92 10.4 µM | NCI-H226 34.3 µM | M14 > 100 µM | OVCAR-8 68.2 µM | SF-539 62.8 µM | 786-0 > 100 µM | NCI-H522 32.7 µM | NCI-H23 84.1 µM | SW-620 > 100 µM | A549 33 µM | UO-31 31.5 µM | ACHN 45 µM | SNB-75 20.2 µM | A498 > 100 µM

N#C/C(=C\c1ccc(O)c(O)c1)C(N)=S [TYRPHOSTIN 47]
inactive: SF-295 82.8 µM | HT-29 61.8 µM | MOLT-4 32.7 µM | SF-268 66.1 µM | HOP-92 > 58.3 µM | NCI-H226 > 100 µM | M14 > 100 µM | OVCAR-8 > 100 µM | SF-539 > 94.4 µM | 786-0 56.6 µM | NCI-H522 16.2 µM | NCI-H23 64 µM | SW-620 79.1 µM | A549 > 100 µM | UO-31 98.9 µM | ACHN > 100 µM | SNB-75 7.36 µM | A498 > 100 µM

— ChEMBL document CHEMBL1201862, “PubChem BioAssay data set” (2004)
